Where no end group is shown, it is not given here.
What was measured:
Format in all cases: cell-based, human
[1] = system: CD49c-positive cell aggregates reaggregated after FACS purification from hESC sample; assay: ACTH secretion test with secretion suppressor cortisol; details: CD49c-positive cells (FACS, hESC sample), cultured 13 days, 3 hours pretreatment, Hydrocortisone 20 µg/ml vs 0.1% DMSO, standard glucose medium 30 minutes, ECLIA
Description: As a test method, a cell aggregate that was reaggregated after FACS purification from a hESC sample and cultured for 12 days was used. Each cell aggregate was transferred to a 1.5 ml microtube, incubated in 250 μl of standard glucose medium (glucose-free DMEM+5.56 mM D-glucose+4.44 mM D-mannitol) at 37° C. for 30 minutes, and then the medium was collected. Subsequently, the aggregate was incubated in 250 μl of standard glucose medium containing 1 μg/ml CRH (Peptide Institute, #4136-s) at 37° C. for 30 minutes, and then the medium was collected. The ACTH concentration in the collected medium was measured by the ECLIA method used in clinical testing. […] As a test method, a cell aggregate that was reaggregated after FACS purification from a hESC sample and cultured for 13 days was used. Before secretion measurement, cells were pretreated for 3 hours with maintenance medium (gfCDM+20% KSR+2 μM SAG) containing cortisol (Hydrocortisone, […]) or the same amount of solvent (0.1% DMSO) as a control. […] The ACTH concentration in the collected medium was measured by the ECLIA method used in clinical testing. […] ACTH concentration in the collected medium etc., was measured by the ECLIA method used in clinical testing. […]

[2] = system: CD49c-positive cell aggregates reaggregated after FACS purification from hESC sample; assay: ACTH secretion test with CRH receptor inhibitor under standard and low glucose; details: 3 hours pretreatment, vs 0.1% DMSO, 30 minutes, aggregates cultured 13-15 days
Description: As a test method, a cell aggregate that was reaggregated after FACS purification from a hESC sample and cultured for 13-15 days was used. Before secretion measurement, cells were pretreated for 3 hours with maintenance medium (gfCDM+20% KSR+[…]) containing antalarmin […] or the same amount of solvent (0.1% DMSO) as a control. Each pretreated cell aggregate was transferred to a 1.5 ml microtube, incubated in 250 μl of standard glucose medium (glucose-free DMEM+5.56 mM D-glucose+4.44 mM D-mannitol) at 37° C. for 30 minutes, and the medium was collected. Subsequently, the aggregate was incubated in 250 μl of low glucose medium (glucose-free DMEM+0.56 mM D-glucose+9.44 mM D-mannitol) at 37° C. for 30 minutes, and then the medium was collected. Antalarmin or DMSO was continuously added to the standard glucose medium and low glucose medium described above. The results of measuring the ACTH concentration in the collected medium using the ECLIA method used in clinical tests are shown. It was confirmed that ACTH secretion increased under low glucose conditions (10 mg/dL) compared to standard glucose conditions (100 mg/dL). […]
(§1) Cell aggregates that were reaggregated after MACS or FACS purification and cultured for 8 days or more were used. […] ACTH concentration in the collected medium etc., was measured by the ECLIA method used in clinical testing. […]

[3] = system: cell aggregates reaggregated after MACS purification from hESC sample (CD49c-positive / CD49c-negative cells); assay: ACTH secretion test (CRH stimulation) on reaggregates after MACS purification; details: 8 days after reaggregation, 5 aggregates, 1 μg/ml CRH in HBSS, 37° C., 10 minutes, ECLIA
Description: The test method used cell aggregates that were cultured for 8 days after MACS purification from a sample differentiated from hESC (also referred to as “hESC sample”) and reaggregation. 5 cell aggregates were transferred to a 1.5 ml microtube and incubated in 250 μl of HBSS(+) (Wako, #084-08965) at 37° C. for 10 minutes, and then HBSS was collected. Subsequently, HBSS was collected after incubation at 37° C. for 10 minutes in 250 μl of HBSS containing 1 μg/ml CRH (Peptide Institute, #4136-s). The ACTH concentration in the collected HBSS was measured by the ECLIA method used in clinical testing.
(§2) Cell aggregates that were reaggregated after MACS or FACS purification and cultured for 8 days or more were used. One or five cell aggregates were incubated at a predetermined temperature and for a predetermined time using a predetermined medium, etc., and then the medium and the like were collected. ACTH concentration in the collected medium etc., was measured by the ECLIA method used in clinical testing. In addition, when confirming the influence of secretion suppressing factors and CRH receptor inhibitors, pretreatment was performed for a predetermined period of time with a maintenance medium containing secretion suppressing factors and CRH receptor inhibitors before secretion measurement.

[4] = system: CD49c-positive cell aggregates reaggregated after FACS purification from hESC sample; assay: ACTH secretion test (CRH stimulation) on reaggregates after FACS purification; details: CD49c-positive cells (FACS, hESC sample), cultured 12 days, 1 μg/ml CRH in standard glucose medium, 37° C., 30 minutes, ECLIA
Description: As a test method, a cell aggregate that was reaggregated after FACS purification from a hESC sample and cultured for 12 days was used. Each cell aggregate was transferred to a 1.5 ml microtube, incubated in 250 μl of standard glucose medium (glucose-free DMEM+5.56 mM D-glucose+4.44 mM D-mannitol) at 37° C. for 30 minutes, and then the medium was collected. Subsequently, the aggregate was incubated in 250 μl of standard glucose medium containing 1 μg/ml CRH (Peptide Institute, #4136-s) at 37° C. for 30 minutes, and then the medium was collected. The ACTH concentration in the collected medium was measured by the ECLIA method used in clinical testing. […] As a test method, a cell aggregate that was reaggregated after FACS purification from a hESC sample and cultured for 13 days was used. Before secretion measurement, cells were pretreated for 3 hours with maintenance medium (gfCDM+20% KSR+2 μM SAG) containing cortisol (Hydrocortisone, […]) or the same amount of solvent (0.1% DMSO) as a control. […] The ACTH concentration in the collected medium was measured by the ECLIA method used in clinical testing.
as §1

[5] = system: cell aggregates reaggregated after FACS purification from hiPSC sample (CD49c-positive / CD49c-negative cells); assay: ACTH secretion test (CRH stimulation) on hiPSC sample reaggregates; details: cultured 21 days, 1 μg/ml CRH in standard glucose medium, 37° C., 30 minutes, ECLIA
Description: As a test method, a cell aggregate that was reaggregated after FACS purification from a hiPSC sample and cultured for 21 days was used. Each cell aggregate was transferred to a 1.5 ml microtube, incubated in 250 μl of standard glucose medium (glucose-free DMEM+5.56 mM D-glucose+4.44 mM D-mannitol) at 37° C. for 30 minutes, and then the medium was collected. Subsequently, the aggregate was incubated in 250 μl of standard glucose medium containing 1 μg/ml CRH (Peptide Institute, #4136-s) at 37° C. for 30 minutes, and then the medium was collected. The ACTH concentration in the collected medium was measured by the ECLIA method used in clinical testing.
as §2

C[C@]12CCC(=O)C=C1CC[C@@H]1[C@@H]2[C@@H](O)C[C@@]2(C)[C@H]1CC[C@]2(O)C(=O)CO [cortisol, Hydrocortisone]
ACTH secreted per cell aggregate before and after cortisol treatment [1]: ACTH secretion was reduced

CCCCN(CC)c1nc(C)nc2c1c(C)c(C)n2-c1c(C)cc(C)cc1C [Antalarmin]
ACTH secretion with Antalarmin treatment ([2]; low glucose conditions (10 mg/dL)): reduced ACTH secretion
ACTH secretion with Antalarmin treatment ([2]; standard glucose conditions (100 mg/dL)): reduced ACTH secretion

CRH: CRH (Peptide Institute, #4136-s), a physiological secretion stimulating factor (SEEPPISLDLTFHLLREVLEMARAEQLAQQAHSNRKLMEII; ends and bridges not checked; UniProt P06850 154-194, looked up)
ACTH secretion before and after CRH stimulation ([3]; CD49c-negative cells (MACS, hESC sample)): did not respond to CRH
ACTH secretion before and after CRH stimulation ([3]; CD49c-positive cells (MACS, hESC sample)): increased ACTH secretion
ACTH secretion per cell aggregate before and after CRH stimulation [4]: ACTH secretion increases
ACTH secretion per cell aggregate before and after CRH stimulation ([5]; CD49c-negative cells (FACS, hiPSC sample)): did not respond to CRH
ACTH secretion per cell aggregate before and after CRH stimulation ([5]; CD49c-positive cells (FACS, hiPSC sample)): increased ACTH secretion

From patent US20250034522A1, “METHOD FOR SEPARATING PITUITARY CELLS AND HYPOTHALAMIC CELLS USING CELL SURFACE MARKER” (FUJITA ACADEMY, priority 2021, published 2025)
